Measured values taken from ChEMBL document CHEMBL4842376, “Design, synthesis and biological evaluation of novel hybrids targeting mTOR and HDACs for potential treatment of hepatocellular carcinoma” (Eur J Med Chem, 2021).
Activity calls are given as the source filed them. No cut-off for these calls is given here.

Experiments:
[1] = test system: HepG2; experiment: Induction of apoptosis in human HepG2 cells assessed as live cells at 5 uM measured after 24 hrs by Annexin V-FITC/PI staining based flow cytometry analysis (Rvb= 84.6%); type: functional
[2] = test system: HepG2; experiment: Induction of apoptosis in human HepG2 cells assessed as late apoptotic cells at 2.5 uM measured after 24 hrs by Annexin V-FITC/PI staining based flow cytometry analysis (Rvb= […]); type: functional
[3] = target: Histone deacetylase 1 (Homo sapiens, UniProt Q13547); experiment: Inhibition of HDAC1 (unknown origin) using Ac-peptide as a substrate pretreated for 15 mins followed by substrate addition
Histone deacetylase 1, sequence (Q13547 whole entry): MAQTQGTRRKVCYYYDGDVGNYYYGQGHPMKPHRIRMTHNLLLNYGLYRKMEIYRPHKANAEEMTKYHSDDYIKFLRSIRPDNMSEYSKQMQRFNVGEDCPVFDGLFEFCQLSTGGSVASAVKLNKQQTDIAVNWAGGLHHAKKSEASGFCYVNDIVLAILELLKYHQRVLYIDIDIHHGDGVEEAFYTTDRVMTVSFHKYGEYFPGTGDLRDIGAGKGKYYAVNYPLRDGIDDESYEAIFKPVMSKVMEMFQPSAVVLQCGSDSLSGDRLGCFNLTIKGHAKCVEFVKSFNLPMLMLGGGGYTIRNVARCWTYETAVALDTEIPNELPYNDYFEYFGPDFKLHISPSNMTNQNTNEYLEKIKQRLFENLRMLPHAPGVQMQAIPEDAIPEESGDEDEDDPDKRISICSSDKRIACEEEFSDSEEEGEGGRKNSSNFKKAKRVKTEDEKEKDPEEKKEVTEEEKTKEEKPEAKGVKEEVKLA

[4] = test system: SK-HEP1; experiment: cells; type: functional, cell-based; conditions: Homo sapiens, SK-HEP1, 72 h
Description: Antiproliferative activity against human SK-HEP1 cells assessed as inhibition of cell growth measured after 72 hrs by MTT assay

[5] = test system: HepG2; experiment: Induction of apoptosis in human HepG2 cells assessed as live cells at 10 uM measured after 24 hrs by Annexin V-FITC/PI staining based flow cytometry analysis (Rvb= 84.6%); type: functional
[6] = target: Histone deacetylase (Homo sapiens) (UniProt Q13547+O15379+Q9UBN7+Q92769+Q9UQL6+Q8WUI4+Q9BY41+Q96DB2+P56524+Q9UKV0+Q969S8); experiment: Inhibition of HDAC in human HepG2 cells assessed as upregulation of histone H3 acetylation at 6 uM measured after 24 hrs by western blot analysis; type: cell-based
[7] = test system: HepG2; experiment: Induction of apoptosis in human HepG2 cells assessed as early apoptotic cells at 2.5 uM measured after 24 hrs by Annexin V-FITC/PI staining based flow cytometry analysis (Rvb= 6.15%); type: functional
[8] = test system: HepG2; experiment: Induction of cell cycle arrest in human HepG2 cells assessed as accumulation of cells in S phase at 6 uM measured after 24 hrs by propidium iodide staining based flow cytometry analysis (reference value: 17 to 26.4%); type: functional
[9] = test system: HepG2; experiment: Induction of cell cycle arrest in human HepG2 cells assessed as accumulation of cells in G0/G1 phase at 6 uM measured after 24 hrs by propidium iodide staining based flow cytometry analysis (reference value: 52.7 to 63.2%); type: functional
[10] = in vitro; conditions: human, L02 cells versus HepG2 cells
Description: Selectivity index, ratio of IC50 for cytotoxicity against human L02 cells to IC50 for antiproliferative activity against human HepG2 cells

[11] = test system: MDA-MB-231; experiment: cells; type: functional, cell-based; conditions: Homo sapiens, MDA-MB-231, 72 h
Description: Antiproliferative activity against human MDA-MB-231 cells assessed as inhibition of cell growth measured after 72 hrs by MTT assay

[12] = test system: SNU-423; experiment: Antiproliferative activity against human SNU-423 cells assessed as inhibition of cell growth measured after 72 hrs by MTT assay; type: functional, cell-based; conditions: SNU-423, 72 h
[13] = target: Serine/threonine-protein kinase mTOR (Homo sapiens, UniProt P42345); experiment: Inhibition of mTOR (unknown origin) using U-Light-4E-BP1 peptide as a substrate in the presence of ATP incubated for 30 mins by Lance ultra assay
[14] = target: T1, Protein deacetylase HDAC6 (Homo sapiens) (UniProt Q9UBN7); experiment: Inhibition of HDAC6 (unknown origin) at 1 uM using Ac-peptide as a substrate pretreated for 15 mins followed by substrate addition relative to control
T1 sequence (whole entry): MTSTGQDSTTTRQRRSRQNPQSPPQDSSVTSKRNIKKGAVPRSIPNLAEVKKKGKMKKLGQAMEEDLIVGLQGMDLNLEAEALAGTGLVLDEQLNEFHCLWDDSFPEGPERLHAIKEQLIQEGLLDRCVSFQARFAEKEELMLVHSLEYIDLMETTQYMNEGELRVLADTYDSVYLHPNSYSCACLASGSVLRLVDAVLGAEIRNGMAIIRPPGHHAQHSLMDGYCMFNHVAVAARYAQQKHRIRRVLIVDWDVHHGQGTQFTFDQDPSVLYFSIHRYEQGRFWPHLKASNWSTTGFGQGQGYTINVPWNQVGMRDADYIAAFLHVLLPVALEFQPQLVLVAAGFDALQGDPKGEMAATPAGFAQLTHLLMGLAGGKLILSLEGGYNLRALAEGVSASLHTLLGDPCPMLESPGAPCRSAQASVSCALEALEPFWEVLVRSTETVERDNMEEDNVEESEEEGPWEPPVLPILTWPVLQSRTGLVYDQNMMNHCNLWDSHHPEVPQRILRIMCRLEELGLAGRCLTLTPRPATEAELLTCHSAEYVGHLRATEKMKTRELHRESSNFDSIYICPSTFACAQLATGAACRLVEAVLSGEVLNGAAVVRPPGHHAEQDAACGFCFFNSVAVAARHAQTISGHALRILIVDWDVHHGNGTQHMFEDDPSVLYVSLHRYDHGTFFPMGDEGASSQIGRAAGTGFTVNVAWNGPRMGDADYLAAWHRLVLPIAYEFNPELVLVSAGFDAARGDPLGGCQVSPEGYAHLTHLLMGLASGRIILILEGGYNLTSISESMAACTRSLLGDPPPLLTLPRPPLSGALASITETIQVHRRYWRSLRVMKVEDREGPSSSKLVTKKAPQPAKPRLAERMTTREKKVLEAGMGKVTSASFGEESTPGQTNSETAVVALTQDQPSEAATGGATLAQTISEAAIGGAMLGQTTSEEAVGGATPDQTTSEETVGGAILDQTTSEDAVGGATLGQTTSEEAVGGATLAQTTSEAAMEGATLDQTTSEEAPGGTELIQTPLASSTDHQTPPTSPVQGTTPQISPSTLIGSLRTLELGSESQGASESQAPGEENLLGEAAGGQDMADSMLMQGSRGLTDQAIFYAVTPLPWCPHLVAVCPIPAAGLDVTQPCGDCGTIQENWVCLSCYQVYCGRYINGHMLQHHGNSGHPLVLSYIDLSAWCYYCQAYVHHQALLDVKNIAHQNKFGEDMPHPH

[15] = test system: HepG2; experiment: Antiproliferative activity against human HepG2 cells assessed as inhibition of cell growth measured after 72 hrs by MTT assay; type: functional, cell-based; conditions: HepG2, 72 h
[16] = test system: CNE-2; experiment: cells; type: functional, cell-based; conditions: Homo sapiens, CNE-2, 72 h
Description: Antiproliferative activity against human CNE-2 cells assessed as inhibition of cell growth measured after 72 hrs by MTT assay

[17] = test system: HepG2; experiment: Induction of apoptosis in human HepG2 cells assessed as necrotic cells at 2.5 uM measured after 24 hrs by Annexin V-FITC/PI staining based flow cytometry analysis (Rvb= 0.082%); type: functional
[18] = Metabolic stability in rat liver microsomes assessed as parent compound remaining at 10 ug/ml measured after 1 hr in the presence of NADPH by HPLC analysis; type: ADME, Microsome; conditions: at 10 µg/mL
[19] = test system: HepG2; experiment: Induction of cell cycle arrest in human HepG2 cells assessed as accumulation of cells in G2/M phase at 3 uM measured after 24 hrs by propidium iodide staining based flow cytometry analysis (reference value: 17.8 to 18.5%); type: functional
[20] = test system: HepG2; experiment: Induction of apoptosis in human HepG2 cells assessed as dead cells at 10 uM measured after 24 hrs by Annexin V-FITC/PI staining based flow cytometry analysis (Rvb= 0.082%); type: functional

SMILES	Activity [1]	Activity [2]	IC50 [3]	IC50 [4]	Activity [5]	inhibition [6]	Activity [7]	Activity [8]	Activity [9]	selectivity ratio [10]	IC50 [11]	IC50 [12]	IC50 [13]	inhibition [14]	IC50 [15]	IC50 [16]	Activity [17]	Activity [19]	Activity [20]	other results
Nc1ncnc2c1c(-c1cnc3[nH]ccc3c1)nn2CCCCCCCCC(=O)NO	77.5%	12.3%	20 nM	11.2 µM	62%	Active	17.4%	11.5%	66.6%	11.5	11 µM	7.5 µM	92.3 nM	99.2%	3050 nM	2.27 µM	0.56%	18.6%	0.56%	remaining at 1 h, 10 ug/ml ([18]; liver microsomes, read-out: Stabilty): 55.2%
Nc1nc2cc(-c3nn(CCCCCCC(=O)NO)c4ncnc(N)c34)ccc2o1	69.6%	8.06%	3.1 nM	2.69 µM	42.2%	Active	28.1%	7.78%	73.3%	15.4	8.43 µM	6.1 µM	7.67 nM	99%	1610 nM	4.36 µM	0.15%	10.8%	0.26%	Stabilty ([18]; microsomes, 1 h): Stable
